Data as given in publication PMC10305617, “Sesquiterpene Coumarin Ethers with Selective Cytotoxic Activities from the Roots of Ferula huber-morathii Peşmen (Apiaceae) and Unequivocal Determination of the Absolute Stereochemistry of Samarcandin” (Pharmaceuticals, 2023).

Assays:
COLO 205 = test: MTS cell viability (cytotoxic activity) assay, COLO 205; assay type: cell-based, Human; settings: COLO 205, MTS, 72 h, mean ± SD, at least three experiments
From the text: (§1) Human colorectal cancer (COLO 205, CCL-222), breast cancer (MCF-7, HTB-22), chronic myelogenous leukemia (K-562, CCL-243), and umbilical vein/vascular endothelium (HUVEC, CRL-1730) cell lines were obtained from the American Type Culture Collection. The COLO 205, MCF-7, K-562, and HUVEC cell lines were maintained in Roswell Park Memorial Institute ([…], Wisent, Montreal, QC, CANADA), Eagle′s Minimum Essential Medium (EMEM, Wisent, Montreal, QC, CANADA), Iscove’s Modified Dulbecco’s Medium (IMDM, Wisent, Montreal, QC, CANADA), and Dulbecco′s Modified Eagle Medium (DMEM, Wisent, Montreal, QC, CANADA) supplemented with 10% fetal bovine serum (Capricorn, Ebsdorfergrund, Germany), 100 U/mL penicillin, and 100 µg/mL streptomycin (Wisent, Montreal, QC, CANADA), respectively. All of the cell lines were cultured at 37 °C in a humidified atmosphere containing 5% CO2.
(§2) A 3-[4,5-dimethylthiazol-2-yl]-5-[3-carboxymethoxyphenyl]-2-[4-sulfophenyl]-2H-tetrazolium, inner salt (MTS) cell viability assay was performed to evaluate the cytotoxic activities of the sesquiterpene coumarin ethers isolated from Ferula huber-morathii. HUVEC (1 × 10^4), COLO 205 (3 × 10^4), K-562 (3 × 10^4), and MCF7 (5 × 10^4) were plated in 96-well plates. Then, 24 h later, the tested compounds were dissolved in DMSO, and the cells were exposed to the different concentrations (131.58–1.028 µM) of the compounds for 72 h. Cisplatin and doxorubicin were used as a positive control. Next, an MTS/phenazine methosulfate (PMS) (Promega, Madison, WI, USA and Sigma, St. Louis, MO, USA respectively) mixture was added to each well and incubated for 1–4 h at 37 °C. The absorbance was read on a microplate reader (Biotek, Winooski, VT, USA) at 490 nm. The cytotoxic activities of the compounds were expressed as an IC50 value. The % inhibition of cell proliferation was calculated using the formula: % Inhibition = [1-(A490test/A490cont)] × 100, where A490test = absorbance of the test sample and A490cont = absorbance of the control sample [88]. The values of the 50% inhibition of the cell proliferation (IC50) were calculated by locating the x-axis values corresponding to one-half of the absorbance values of the sample.

caspase-8 = test: Caspase-8 colorimetric activity assay in COLO 205 cells; assay type: cell-based, Human; settings: COLO 205, 24 h, highest concentration (131.58 µM)
Procedure: (§3) The caspase-3, -8, and -9 activities were detected by following the protocol of the caspase-3, -8, -9 colorimetric assay kits (Biovision, K106, K113, K119, Mountain View, CA, USA). The cells treated with mogoltadone (5) for 24 h were harvested and lysed with a RIPA (50 mM Tris-HCl, pH 8.0, 150 mM NaCl, 1% Nonidet P-40, 0.5% sodium deoxycholate and 0.1% SDS) cell lysis buffer. The lysed cells were centrifuged at 22,000 g for 30 min and the supernatant was collected in a tube. The samples (200 µg protein) were incubated with caspase substrates (final concentration, 200 µM) at 37° C for 2 h and read on a microplate reader at 405 nm. The fold-increase in enzyme activity was detected by comparison with the untreated control.

K-562 [1] = test: MTS cell viability (cytotoxic activity) assay, K-562; assay type: cell-based, Human; settings: K-562, MTS, 72 h, mean ± SD, at least three experiments
From the text: as §1, §2

MCF-7 [2] = test: MTS cell viability (cytotoxic activity) assay, MCF-7; assay type: cell-based, Human; settings: MCF-7, MTS, 72 h, mean ± SD, at least three experiments
From the text: as §1, §2

HUVEC = test: MTS cell viability (cytotoxic activity) assay, non-cancerous HUVEC; assay type: cell-based, Human; settings: 72 h, mean ± SD, at least three experiments
From the text: as §1, §2

MCF-7 [3] = test: MTS cell viability (cytotoxic activity) assay, MCF-7; assay type: cell-based, Human; settings: MCF-7, MTS, 72 h; root extracts
K-562 [4] = test: MTS cell viability (cytotoxic activity) assay, K-562; assay type: cell-based, Human; settings: K-562, MTS, 72 h; root extracts
caspase-9 = test: Caspase-9 colorimetric activity assay in COLO 205 cells; assay type: cell-based, Human; settings: COLO 205, 24 h, highest concentration (131.58 µM)
Procedure: as §3

caspase-3 = test: Caspase-3 colorimetric activity assay in COLO 205 cells; assay type: cell-based, Human; settings: COLO 205, 24 h, highest concentration (131.58 µM)
Procedure: as §3

[5] = tested on: ovarian carcinoma cells (CH1); set-up: method as in PMID 23701832; settings: ovarian carcinoma cells (CH1); cited from earlier work
cervical (HeLa) = settings: read-out: cytotoxic activity HeLa; cited from earlier work
melanoma (SK-MEL-28) = settings: read-out: cytotoxic activity SK-MEL-28; cited from earlier work
breast (MDA-MB-231) = tested on: breast (MDA-MB-231); set-up: method as in PMID 23701832, PMID 26503061, PMID 30944714, PMID 27002410, PMID 33676992; settings: cited from earlier work
[6] = tested on: MCF-7 breast cancer cell line; settings: read-out: cytotoxic activity MCF-7; cited from earlier work
ovarian (A2780) = settings: read-out: cytotoxic activity A2780; cited from earlier work
lung (A549) = settings: read-out: cytotoxic activity A549; cited from earlier work
[7] = tested on: cisplatin-resistant derivatives of the human ovarian (A2780P A2780/RCIS); settings: A2780P A2780/RCIS; read-out: cytotoxic activity A2780P A2780/RCIS; cited from earlier work
[8] = tested on: chronic myelogenous leukemia (K562); settings: cited from earlier work
colon (HCT116) = settings: HCT116; read-out: cytotoxic activity HCT116; cited from earlier work
[9] = tested on: bladder cancer cells (5637); settings: 5637; cited from earlier work
colorectal (HT29) = tested on: colorectal (HT29); set-up: method as in PMID 23701832, PMID 26503061, PMID 30944714, PMID 27002410, PMID 33676992; settings: read-out: cytotoxic activity HT29; cited from earlier work
[10] = tested on: COLO 205, K-562, MCF-7 and HUVEC cell lines; test: MTS cytotoxicity, overall verbal grading over the cell line panel; assay type: cell-based, Human; settings: authors' verbal summary over COLO 205, K-562, MCF-7, HUVEC
From the text: as §1, §2

Structure (SMILES): N.N.[Cl][Pt][Cl] [Cisplatin, reference compound]
- IC50 (COLO 205): 112 ± 3.11 µM
- increase in caspase-8 activity compared with the control (caspase-8): 1.8 fold
- IC50 (K-562 [1]): 8.1 ± 0.25 µM
- IC50 (MCF-7 [2]): 64.2 ± 5.25 µM
- IC50 (HUVEC): 40.7 ± 1.12 µM
- IC50 (µg/mL) MCF-7 (MCF-7 [3]): 35.52 ± 0.76 µg/mL
- IC50 (µg/mL) K-562 (K-562 [4]): 9.73 ± 0.30 µg/mL
- increase in caspase-9 activity compared with the control (caspase-9): 2.07 fold
- increase in caspase-3 activity compared with the control (caspase-3): 6.73 fold

Structure (SMILES): CC1=CC[C@@H]2C(C)(C)C(=O)CC[C@@]2(C)[C@@H]1COc1ccc2ccc(=O)oc2c1 [Conferone (1), conferone]
- IC50 (COLO 205; Homo sapiens): 27.6 ± 0.69 µM
- IC50 [5]: 7.8 µM
- IC50 (cervical (HeLa)): 38 µM
- IC50 (K-562 [1]; Homo sapiens, K562): 55.5 ± 0.94 µM
- IC50 (melanoma (SK-MEL-28)): 64 µM
- IC50 (MCF-7 [2]; Homo sapiens, MCF7): 34 ± 0.68 µM
- cytotoxic activity MDA-MB-231 (breast (MDA-MB-231)): 30 µg/mL
- IC50 [6]: > 100 µM
- IC50 (ovarian (A2780)): 32 µM
- IC50 (lung (A549)): 38 µM
- IC50 [7]: 25 µM
- cytotoxic activity K562 [8]: 86.12 µg/mL
- IC50 (colon (HCT116)): 32 µM
- IC50 (HUVEC; Homo sapiens): 46.1 ± 0.99 µM
- cytotoxic effect on bladder cancer cells (5637), in words [9]: no cytotoxic effect
- IC50 (colorectal (HT29)): 20 µM
- cytotoxicity in words ([10]; listed as 1): moderate or strong cytotoxicity
- cytotoxicity in words ([10]; listed as conferone (1)): moderate cytotoxic effect
